In one experiment the test system is P. aeruginosa PAO280. The experiment can be described thus: MIC determination, P. aeruginosa PAO280. In kind it is cell-based. The settings on record: Pseudomonas aeruginosa, PAO280, read-out: MIC (ug/mL) P. aeruginosa PAO280. On the procedure: (§1) MIC determinations: The in vitro antibacterial activity of compounds described in the Examples was evaluated by minimum inhibitory concentration (MIC) testing according to Clinical and Laboratory Standards Institute (CLSI, formerly NCCLS) guidelines. See: Clinical and Laboratory Standards Institute. Methods for Dilution Antimicrobial Susceptibility Tests for Bacteria that Grow Aerobically; Approved Standard-Seventh Edition. CLSI document M7-A7 [ISBN 1-56238-587-9]. Clinical and Laboratory Standards Institute, 940 West Valley Road, Suite 1400, Wayne, Pa. 19087-1898 USA, 2006; also Clinical and Laboratory Standards Institute. Performance Standards for Antimicrobial Susceptibility Testing; Eighteenth Informational Supplement. CLSI document M100-S18 [ISBN1-56238-653-0]. Clinical and Laboratory Standards Institute.
(§2) The following bacterial strains were used:
Pseudomonas aeruginosa PA0280: lacks efflux pumps MexAB-oprM, MexXY and MexZ

The target in experiment [1] is T1, Pseudomonas aeruginosa LpxC enzyme (Pseudomonas aeruginosa, UniProt P47205).
T1 construct: made in house; host or cells: E. coli
T1 sequence (P47205 1-303): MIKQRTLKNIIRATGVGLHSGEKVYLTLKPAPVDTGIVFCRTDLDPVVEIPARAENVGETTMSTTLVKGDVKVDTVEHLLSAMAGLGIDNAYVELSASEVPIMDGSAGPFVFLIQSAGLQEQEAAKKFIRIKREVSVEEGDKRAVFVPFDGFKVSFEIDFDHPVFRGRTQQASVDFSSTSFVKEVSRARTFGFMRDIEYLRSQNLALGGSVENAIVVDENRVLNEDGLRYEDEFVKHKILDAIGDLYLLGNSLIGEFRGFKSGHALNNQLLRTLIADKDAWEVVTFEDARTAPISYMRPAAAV
The experiment can be described thus: IC50 assay, LpxC enzyme from P. aeruginosa. Type of experiment: biochemical. The following applies: 0.5 nM enzyme, 25° C., pH 8.0, 20 min; ** = average of 2-8 assays. On the procedure: IC50 assay, LpxC enzyme from P. aeruginosa: IC50 determination in the LpxC enzyme assay was carried out in a similar manner to that described by S. A. Hyland et al., J. Bacteriology 1997, 179, 2029-2037. [See also T. Kline et al., J. Medicinal Chemistry 2002, 45, 3112-3129.] Briefly, Pseudomonas aeruginosa LpxC enzyme (0.5 nM) purified from E. coli-overexpressing bacteria was incubated at 25° C. in a final volume of 25 ul containing 0.5 uM UDP-3-O—(R-3-hydroxydecanoyl)-N—[^3H-acetyl]glucosamine (B. D. Maxwell and J. C. Bronstein, J. Labeled Compounds and Radiopharmaceuticals 2005, 48, 1049-1054), 1 mg/ml BSA, and 50 mM sodium phosphate buffer, pH 8.0 in the presence and absence of inhibitor compound. At the end of 20 min, 90 ul of a pre-mixed 3% suspension of activated charcoal in 100 mM sodium acetate, pH 7.5, was added to stop the enzyme reaction. The contents of the well were transferred to a filter plate and filtered, and an aliquot of the filtrate was quantitated by liquid scintillation spectrometry. A no-enzyme control was subtracted in order to eliminate background counts.

The test system of experiment [2] is Staphylococcus aureus ATCC 29213. Briefly: MIC determination, S. aureus ATCC 29213. In kind it is cell-based. The settings on record: ATCC29213, CLSI quality control reference strain, * = arithmetic mean of 2-6 MIC determinations, read-out: MIC (ug/mL) S. aureus ATCC 29213. Here is the method: as §1, §2
Staphylococcus aureus ATCC 29213: CLSI quality control reference strain; and […]

The next experiment relates to P. aeruginosa UI-18. Briefly: MIC determination, P. aeruginosa UI-18. Type of experiment: cell-based. The following applies: Pseudomonas aeruginosa, UI18; wild-type; * = arithmetic mean of 2-6 MIC determinations; read-out: MIC (ug/mL) P. aeruginosa UI-18. Here is the method:
as §1, §2
P. aeruginosa UI-18: Wild-type;

The structures appear in SMILES notation. Values after ≈ are worked out from the molar mass of the structure shown.

As to `Cn1cc(CCNC(=O)C(C)(OCc2ccc(-c3ccccc3)cc2)C(=O)NO)cn1` (stereo not shown) [Example 73, 2-(biphenyl-4-ylmethoxy)-N-hydroxy-2-methyl-N′-[2-(1-methyl-1H-pyrazol-4-yl)ethyl]malonamide], the values for the MIC (in the experiment on P. aeruginosa PAO280; in experiment [2]; in the experiment on P. aeruginosa UI-18) were 1 µg/mL (≈ 2.37 µM), greater than 64 µg/mL and greater than 64 µg/mL, respectively. Further, in experiment [1], the IC50 was 0.0156 µM.

`CC(OCc1ccc(-c2ccccc2)cc1)(C(=O)NO)C(=O)NC[C@@H]1CCCO1` (stereo partly drawn) [Example 75, 2-(biphenyl-4-ylmethoxy)-N-hydroxy-2-methyl-N′-[(2S)-tetrahydrofuran-2-ylmethyl]malonamide]: the MIC is 1 µg/mL (≈ 2.51 µM) with P. aeruginosa PAO280, greater than 64 µg/mL in experiment [2] and 64 µg/mL (≈ 161 µM) in the experiment with P. aeruginosa UI-18. In addition, in experiment [1], it took 0.0126 µM to reach half-maximal inhibition (IC50).

On to `CCN1CC(CNC(=O)C(C)(OCc2ccc(-c3ccccc3)cc2)C(=O)NO)CC1=O` (stereo not shown) [Example 82, 2-(biphenyl-4-ylmethoxy)-N-[(1-ethyl-5-oxopyrrolidin-3-yl)methyl]-N′-hydroxy-2-methylmalonamide], for which the values for the MIC (in the experiment with P. aeruginosa PAO280; in experiment [2]; with P. aeruginosa UI-18) were 4 µg/mL (≈ 9.1 µM), greater than 64 µg/mL and greater than 64 µg/mL, respectively. For the same molecule, 0.0486 µM corresponded to half-maximal inhibition in experiment [1] (IC50).

As to `CC(=O)NCCNC(=O)C(C)(OCc1ccc(-c2ccccc2)cc1)C(=O)NO` (stereo not shown) [Example 77, N-(2-acetamidoethyl)-2-(biphenyl-4-ylmethoxy)-N′-hydroxy-2-methylmalonamide], the values for the MIC (in the experiment on P. aeruginosa PAO280; in experiment [2]; with P. aeruginosa UI-18) were 1 µg/mL (≈ 2.5 µM), greater than 64 µg/mL and 64 µg/mL (≈ 160 µM), respectively. The IC50 in experiment [1] was determined as 0.00612 µM.

In the case of `CC(OCc1ccc(-c2ccccc2)cc1)(C(=O)NO)C(=O)NCCO` (stereo not shown) [Example 81, 2-(biphenyl-4-ylmethoxy)-N-hydroxy-N′-(2-hydroxyethyl)-2-methylmalonamide], the values for the MIC (in the experiment with P. aeruginosa PAO280; in experiment [2]; in the experiment on P. aeruginosa UI-18) were 1 µg/mL (≈ 2.79 µM), greater than 64 µg/mL and 64 µg/mL (≈ 179 µM), respectively. Also, the IC50 in experiment [1] worked out at 0.0261 µM.

Take `CC(OCc1ccc(-c2ccccc2)cc1)(C(=O)NO)C(=O)NCC1(O)CCCC1` (stereo not shown) [Example 68, 2-(biphenyl-4-ylmethoxy)-N-hydroxy-N′-[(1-hydroxycyclopentyl)methyl]-2-methylmalonamide]: the results for the MIC (with P. aeruginosa PAO280; in experiment [2]; in the experiment on P. aeruginosa UI-18) were 4 µg/mL (≈ 9.7 µM), greater than 64 µg/mL and greater than 64 µg/mL, respectively. Moreover, the IC50 in experiment [1] was 0.0955 µM.

As for `Cc1cc(F)ccc1-c1ccc(COC(C)(CO)C(=O)NO)cc1` (stereo not shown) [Example 63, 2-[(4′-fluoro-2′-methylbiphenyl-4-yl)methoxy]-N,3-dihydroxy-2-methylpropanamide], the MIC with P. aeruginosa PAO280 was 4 µg/mL (≈ 12 µM); in experiment [2], greater than 64 µg/mL; with P. aeruginosa UI-18 it was greater than 64 µg/mL. The half-maximal inhibitory concentration (IC50) in experiment [1] stood at 0.0174 µM.

In the case of `CC(CO)(OCc1ccc(-c2ccc(C3=NNC(=O)CC3)cc2)cc1)C(=O)NO` (stereo not shown) [Example 60, N,3-dihydroxy-2-methyl-2-{[4′-(6-oxo-1,4,5,6-tetrahydropyridazin-3-yl)biphenyl-4-yl]methoxy}propanamide], the values for the MIC (in the experiment with P. aeruginosa PAO280; in experiment [2]; in the experiment with P. aeruginosa UI-18) were 4 µg/mL (≈ 10.1 µM), greater than 64 µg/mL and greater than 64 µg/mL, respectively. In experiment [1], this molecule yielded an IC50 of 0.0105 µM.

Consider `Cc1ncsc1CCNC(=O)C(C)(OCc1ccc(-c2ccccc2)cc1)C(=O)NO` (stereo not shown) [Example 80, 2-(biphenyl-4-ylmethoxy)-N-hydroxy-2-methyl-N′-[2-(4-methyl-1,3-thiazol-5-yl)ethyl]malonamide], for which the MIC in the experiment with P. aeruginosa PAO280 is 0.5 µg/mL (≈ 1.14 µM); in experiment [2] it was greater than 64 µg/mL; in the experiment with P. aeruginosa UI-18, 64 µg/mL (≈ 146 µM). Moreover, the IC50 in experiment [1] came to 0.00899 µM.

For the molecule `CN(C)S(=O)(=O)c1ccc(-c2ccc(COC(C)(CO)C(=O)NO)cc2)cc1` (stereo not shown) [Example 61, 2-({4′-[(dimethylamino)sulfonyl]biphenyl-4-yl}methoxy)-N,3-dihydroxy-2-methylpropanamide], the MIC with P. aeruginosa PAO280 is 16 µg/mL (≈ 39.2 µM); in experiment [2], greater than 64 µg/mL; in the experiment with P. aeruginosa UI-18, greater than 64 µg/mL. Moreover, the half-inhibitory concentration (IC50) in experiment [1] was 0.0602 µM.

As for `Cc1nnc(CCNC(=O)C(C)(OCc2ccc(-c3ccccc3)cc2)C(=O)NO)[nH]1` (stereo not shown) [Example 79, 2-(biphenyl-4-ylmethoxy)-N-hydroxy-2-methyl-N′-[2-(5-methyl-4H-1,2,4-triazol-3-yl)ethyl]malonamide], the MIC in the experiment on P. aeruginosa PAO280 is 1 µg/mL (≈ 2.36 µM); in experiment [2], greater than 64 µg/mL; in the experiment with P. aeruginosa UI-18, 64 µg/mL (≈ 151 µM). In addition, in experiment [1], the IC50 is 0.00288 µM.

On to `CC(OCc1ccc(-c2ccccc2)cc1)(C(=O)NO)C(=O)NCCc1cscn1` (stereo not shown) [Example 76, 2-(biphenyl-4-ylmethoxy)-N-hydroxy-2-methyl-N′-[2-(1,3-thiazol-4-yl)ethyl]malonamide], for which the MIC was 0.5 µg/mL (≈ 1.18 µM) with P. aeruginosa PAO280, greater than 64 µg/mL in experiment [2] and 64 µg/mL (≈ 150 µM) in the experiment with P. aeruginosa UI-18. In experiment [1], this molecule had a 50% inhibitory concentration (IC50) of 0.00848 µM.

With `CC(CO)(OCc1ccc(-c2ccc(-c3csnn3)cc2)cc1)C(=O)NO` (stereo not shown) [Example 59, N,3-dihydroxy-2-methyl-2-{[4′-(1,2,3-thiadiazol-4-yl)biphenyl-4-yl]methoxy}propanamide], the figures for the MIC (with P. aeruginosa PAO280; in experiment [2]; in the experiment on P. aeruginosa UI-18) were 1 µg/mL (≈ 2.59 µM), greater than 64 µg/mL and greater than 64 µg/mL, respectively. The molecule also had an IC50 in experiment [1] of 0.00402 µM.

For the molecule `COCCNC(=O)C(C)(OCc1ccc(-c2ccccc2)cc1)C(=O)NO` (stereo not shown) [Example 74, 2-(biphenyl-4-ylmethoxy)-N-hydroxy-N′-(2-methoxyethyl)-2-methylmalonamide], the MIC with P. aeruginosa PAO280 was 1 µg/mL (≈ 2.69 µM); in experiment [2] it was greater than 64 µg/mL; in the experiment on P. aeruginosa UI-18, 64 µg/mL (≈ 172 µM). Moreover, half-maximal inhibition in experiment [1] (IC50) required 0.0139 µM.

For the molecule `C[C@@](OCc1ccc(-c2ccccc2)cc1)(C(=O)NO)[C@@H](O)c1cc(COP(=O)(O)O)on1` [Example 47, trisodium {3-[(1S,2S)-2-(biphenyl-4-ylmethoxy)-1-hydroxy-2-methyl-3-(oxidoamino)-3-oxopropyl]isoxazol-5-yl}methyl phosphate], half-maximal inhibition in experiment [1] (IC50) was put at 0.00565 µM.

Take `CC(CO)(OCc1ccc(-c2cccc(F)c2)cc1)C(=O)NO` (stereo not shown) [Example 64, 2-[(3′-fluorobiphenyl-4-yl)methoxy]-N,3-dihydroxy-2-methylpropanamide]: the MIC in the experiment on P. aeruginosa PAO280 was 4 µg/mL (≈ 12.5 µM); in experiment [2], greater than 64 µg/mL; in the experiment with P. aeruginosa UI-18, greater than 64 µg/mL. This molecule also showed a 50% inhibitory concentration (IC50) in experiment [1] of 0.00757 µM.

As for `Cc1n[nH]c(C)c1CNC(=O)C(C)(OCc1ccc(-c2ccccc2)cc1)C(=O)NO` (stereo not shown) [Example 78, 2-(biphenyl-4-ylmethoxy)-N-[(3,5-dimethyl-1H-pyrazol-4-yl)methyl]-N′-hydroxy-2-methylmalonamide], the MIC in the experiment on P. aeruginosa PAO280 is 1 µg/mL (≈ 2.37 µM); in experiment [2], greater than 64 µg/mL; in the experiment on P. aeruginosa UI-18, 64 µg/mL (≈ 151 µM). The molecule also gave a concentration for half-maximal inhibition (IC50) in experiment [1] of 0.0055 µM.

Take `COc1cccc(-c2ccc(COC(C)(CO)C(=O)NO)cc2)c1F` (stereo not shown) [Example 65, 2-[(2′-fluoro-3′-methoxybiphenyl-4-yl)methoxy]-N,3-dihydroxy-2-methylpropanamide]: the MIC with P. aeruginosa PAO280 was 1 µg/mL (≈ 2.86 µM); in experiment [2], greater than 64 µg/mL; in the experiment on P. aeruginosa UI-18 it was 64 µg/mL (≈ 183 µM). In addition, in experiment [1], the IC50 turned out to be 0.00579 µM.

In the case of `Cc1ccc(CNC(=O)C(C)(OCc2ccc(-c3ccccc3)cc2)C(=O)NO)cc1` (stereo not shown) [Example 72, 2-(biphenyl-4-ylmethoxy)-N-hydroxy-2-methyl-N′-(4-methylbenzyl)malonamide], the MIC was 4 µg/mL (≈ 9.56 µM) with P. aeruginosa PAO280, greater than 16 µg/mL in experiment [2] and greater than 16 µg/mL in the experiment on P. aeruginosa UI-18. Moreover, in experiment [1], the IC50 stood at 0.0307 µM.

These data come from patent US9340493B2, “Hydroxamic acid derivatives useful as antibacterial agents” (Pfizer Inc., priority 2008, dated 2016).
